# Measured values taken from patent US20120070392A1, “COMPOSITION FOR INHIBITING ERYTHEMA CAUSED BY ULTRAVIOLET RADIATION CONTAINING A DIPEPTIDE AS ACTIVE INGREDIENT” (priority 2009, published 2012).
# Test system: PGE2 production
# Test: Inhibition of UVB-induced PGE2 production in cultured human keratinocytes (PGE2 assay kit, calibrated with MTT absorbance)
# Type: cell-based
# Settings: not given
# Procedure: Human keratinocytes were seeded at a density of 1×10^5 cells/well to 6-well plates containing 2 mL of KGM(keratinocyte growth medium, Clonetics, San Diego, Calif., USA) per well and cultured overnight. Then, the medium was replaced with KBM(keratinocyte basal medium) supplemented with 0.1% BSA(bovine serum albumin) and the cells were cultured for an additional 24 hours. Subsequently, the cells were pre-treated for an additional 24 hours with 2 mL of the same medium containing 10 μg/ml of each of the dipeptides listed in Table 1. […] The pre-treated medium was transferred to new 24 well plates and 1 mL of DPBS(Dulbecco's phosphate buffered saline) was added to the cells in each well. During UV irradiation, the transferred medium was stored in a cell incubator. […] At this time, the control was covered with aluminum foil. After the removal of DPBS, the transferred medium was returned to each well. The cells were further cultured for 24 hours, after which 1 mL of the medium was transferred to microcentrifuge tubes. […] The supernatants were then removed and the formazan crystals were solubilized in 1 ml of DMSO(dimethylsulfoxide). One hundred μL of the solution was transferred to each well of 96-well plates and an optical density was determined at 540 nm using an ELISA(enzyme-linked immunosorbent assay) reader. […] The concentration of PGE2 was determined using a PGE2 Assay Kit(KGE004, R&D Systems, Inc., Minneapolis, Minn., USA) according to the manufacturer's instruction. […] After removal of the reaction, the wells were washed five times with 400 μL of wash buffer. To each well was added 200 μL of a substrate solution, followed by incubation for 20 30 min. The reaction was terminated with 50 μL of a stop solution per well before determining absorbance at 450 nm on an ELISA reader. The PGE2 concentration of each sample was calculated from the standard graph and calibrated with the absorbance obtained in the MTT assay to determine their inhibitory activity against PGE2 production.
row,Molecule,% Inhibition against PGE2 Production
1,isoleucine-methionine [IM],57.1%
2,serine-methionine [SM],75.1%
3,"N=C(N)NCCC[C@H](N)C(=O)O.NCC(=O)O [RG, arginine-glycine]",82.8%
4,asparagine-tyrosine [NY],58.1%
5,valine-lysine [VK],42.0%
6,methionine-threonine [MT],71.2%
7,glycine-glycine [GG],26.1%
8,tryptophan-methionine [WM],50.6%
9,valine-cysteine [VC],43.3%

# Same assay, conditions: 10 μg/ml dipeptide, 24 h pre-treatment, human keratinocytes, UVB 100 mJ/cm^2, medium assayed 24 h after irradiation; 0% or lower expressed as zero; 10% or more regarded as effective
row,Molecule,% Inhibition against PGE2 Production
1,phenylalanine-phenylalanine [FF],70.5%

# Same assay, conditions: 10 μg/ml dipeptide, 24 h pre-treatment, human keratinocytes, UVB 100 mJ/cm^2, medium assayed 24 h after irradiation; […]; 10% or more regarded as effective
row,Molecule,% Inhibition against PGE2 Production
1,aspartic acid-phenylalanine [DF],83.4%
2,arginine-lysine [RK],88.2%
3,alanine-glutamine [AQ],69.0%
4,arginine-arginine [RR],90.5%
5,phenylalanine-lysine [FK],73.3%
6,asparagine-leucine [NL],72.6%
7,glutamic acid-isoleucine [EI],74.0%
8,phenylalanine-isoleucine [FI],45.8%
9,alanine-leucine,48.9%
10,alanine-phenylalanine [AF],84.2%
11,arginine-asparagine [RN],10.7%
12,tryptophan-asparagine [WN],33.1%
13,glutamic acid-serine [ES],48.8%
14,valine-glutamic acid [VE],24.8%
